Data from patent US8241679B2, “Composition comprising the extract of crude drug complex having neuroprotective activity for preventing and treating stroke and neurodegenerative diseases” (Neumed Inc., priority 2007, dated 2012).

System: MCAo in rats
Assay: MCAo experimental model, infarct volume (TTC staining)
Format: in vivo, Sprague-Dawley rat
Details: positive control, 45 mg/kg
Experimental: To determine the preventing effect of the extract of crude drug complex of the present invention on neuronal injury, following intraluminal suture method using animal model was performed by modifying well-mown method disclosed in the literature (Zea L. E. Stroke, 20, pp 84-91, 1989).
8-weeks old white male Sprague-Dawley rat weighing about 280 g was procured from Samtaco Co. Ltd. (Seoul), […] for 1 week providing with free access to water and feed and acclimated to experimental environment.
The rat was anesthetized with 5% isoflurane gas (mixed gas with the gas mixture consisting of 70% N2O and 30% O2 gas and 5% isoflurane) and maintained with 1% isoflurane gas during experiment.
The skin at the center of rat neck was excised and right CCA (common carotid artery) and ECA (external carotid artery) were isolated from neighboring tissue and nerves with care. […]
The body temperature was monitored and maintained at 37±0.5° C.
The caudal was excised and terminal tissue was discarded to obtain 6 numbers of brain slices with the thickness of 2 mm using by brain matrix. […] The volume of cerebral infarction region was calculated by the OPTIMAS program (Media Cybernetics Co., 6.51 version). To determine the exact volume of cerebral infarction region of right hemisphere excluding edema volume (A), the real volume of cerebral infarction (B) was calculated by following Empirical Formula 1 and 2. […]

CN(C)c1ccc(O)c2c1C[C@H]1C[C@H]3[C@H](N(C)C)C(O)=C(C(N)=O)C(=O)[C@@]3(O)C(O)=C1C2=O [minocycline]
infarct volume: 20.5±2.85%
